For test [1], the system named is skin barrier function in SDS-treated mice. The test is described as follows: Rough skin experiment, long term (28-day) oral administration: transepidermal water loss after SDS treatment. Format: in vivo, HR-1 hairless mice. The conditions noted are these: 10 mM in drinking water, two hours after the second SDS treatment (28th day); for Δ(delta) TEWL value: negative control 2.4. How it is done: The administration of the amino acid, the rough skin experiments and the quantification of the transepidermal water loss were conducted similarly to Example 1 using the HR-1 hairless mice described above. The amino acid employed was 10 mM L- or D-glutamic acid or L- or D-glutamine. The negative control employed was drinking water containing no amino acid. The SDS treatment was conducted on the 27th and 28th days after starting the administration of the amino acid. In this Example, the SDS treatments on the 27th and 28th days after starting the administration of the amino acid described above are referred to as the first and the second SDS treatments, respectively. The quantification of the transepidermal water loss was conducted two hours after the second SDS treatment.
The error bars for relevant experimental conditions are the standard deviations of the measured values of the results of the experiments repeated five times under identical conditions. The asterisk (*) indicates p<5% by Dunnett's test.

The test system is the same in test [2]. The test is described as follows: Rough skin experiment, short term (11-day) oral administration: transepidermal water loss after SDS treatment. Format: in vivo, HR-1 hairless mice. Particulars: for Δ(delta) TEWL value: difference from the negative control (Dunnett's test, p<5%): 2 hours after the second SDS treatment. How it is done:
HR-1 hairless mice (males, seven-week old, Hoshino Laboratory Animals, Inc.) were subjected to the experiment. Each experimental group included seven to eight mice.
In order to examine the effect of the amino acid on the rough skin, 1 mM or 10 mM D-glutamic acid was given with drinking water. The negative control employed was drinking water containing no D-glutamic acid.
An unwoven fabric soaked with a 10% SDS solution was brought into contact for five minutes with one side of the back of a mouse under anesthesia (hereinafter referred to as “SDS treatment”) on the 10th and 11th days after starting the administration of D-glutamic acid. The SDS treatment may be conducted two to five times repetitively until the rough skin becomes evident. In this Example, the SDS treatments on the 10th and 11th days after starting the administration of D-glutamic acid are referred to as the first and the second SDS treatments, respectively. Also in the following transepidermal water loss measurements, an area treated with SDS is referred to as an “SDS treated area,” while an area of the opposite side which was not treated with SDS is referred to as an “SDS non-treated area.”
In order to quantify the rough skin condition, the transepidermal water loss was measured immediately before the first SDS treatment (before SDS treatment) and two hours after the first and the second SDS treatments using a transepidermal water loss meter (Tewameter TM-300, manufactured by Courage+Khazaka electronic GmbH) in accordance with the instruction provided by the manufacturer. Here, the value obtained by subtracting the quantity of the transepidermal water loss of the SDS non-treated area from the quantity of the transepidermal water loss of the SDS treated area was regarded as a “Δ(delta) TEWL value.”
The error bars for relevant experimental conditions are the standard deviations of the measured values of the results of the experiments seven to eight times under identical conditions. The asterisk (*) indicates p<5% by Dunnett's test.

These results are taken from US20120165408A1, “ORAL COMPOSITION FOR ALLEVIATING ROUGH SKIN” (Shiseido Company, Ltd., priority 2009, published 2012).

Regarding `N[C@H](CCC(=O)O)C(=O)O` [D-glutamic acid], the “Δ(delta) TEWL value: difference from the negative control (Dunnett's test, p<5%)” value in test [1], in test [2] (1 mM in drinking water) and in test [2] (10 mM in drinking water) was “significant difference” each time. For the same compound, the “Δ(delta) TEWL value” is on record as −0.9 g/m^2/h in test [1]; 0.4 g/m^2/h in test [2] (1 mM in drinking water, immediately before the first SDS treatment (10th day), negative control 0.7); 1.5 g/m^2/h in test [2] (1 mM in drinking water, two hours after the first SDS treatment (10th day), negative control 2.2); 3.2 g/m^2/h in test [2] (1 mM in drinking water, two hours after the second SDS treatment (11th day), negative control 7.0); 0.1 g/m^2/h in test [2] (10 mM in drinking water, immediately before the first SDS treatment (10th day), negative control 0.7); 1.2 g/m^2/h in test [2] (10 mM in drinking water, two hours after the first SDS treatment (10th day), negative control 2.2). Besides, the “Δ(delta) TEWL value” in test [2] (10 mM in drinking water, two hours after the second SDS treatment (11th day), negative control 7.0) turned out to be 3.8 g/m^2/h.
Consider `NC(=O)CC[C@@H](N)C(=O)O` [D-glutamine], for which, in test [1], the “Δ(delta) TEWL value: difference from the negative control (Dunnett's test, p<5%)” value was “no significant difference” and the “Δ(delta) TEWL value” came out at 3.3 g/m^2/h.
In the case of `N[C@@H](CCC(=O)O)C(=O)O` [L-glutamic acid], in test [1], the “Δ(delta) TEWL value: difference from the negative control (Dunnett's test, p<5%)” value is listed as “no significant difference” and the “Δ(delta) TEWL value” was 1.1 g/m^2/h.
In the case of `NC(=O)CC[C@H](N)C(=O)O` [L-glutamine], in test [1], the “Δ(delta) TEWL value: difference from the negative control (Dunnett's test, p<5%)” value is listed as “no significant difference” and the “Δ(delta) TEWL value” amounted to 2.3 g/m^2/h.
